One may read the MIC as the least concentration at which growth counts as inhibited. By IC50 is commonly meant the concentration that gives 50% inhibition.

≈ marks a conversion by molar mass, not a printed value.

The test system of data set [1] is Trichophyton interdigitale CCM 8377. Briefly: Antifungal microdilution broth MIC. As to conditions: Trichophyton interdigitale, CCM8377, 72 h, read-out: MIC Trichophyton interdigitale (standards). In general terms: In broth dilution the organism is exposed to a series of concentrations in liquid medium.
Data set [2] relates to Lichtheimia corymbifera CCM 8077. Briefly: Antifungal microdilution broth MIC. As to conditions: CCM8077, 48 h, read-out: MIC Lichtheimia corymbifera (standards).
In data set [3] the test system is C. tropicalis CCM 8264. Briefly: Antifungal microdilution broth MIC. As to conditions: Candida tropicalis, CCM8264, 48 h, read-out: MIC C. tropicalis (standards).
The subject of data set [4] is Aspergillus flavus CCM 8363. Briefly: Antifungal microdilution broth MIC. As to conditions: CCM8363, 48 h, read-out: MIC Aspergillus flavus (standards).
The subject of data set [5] is C. parapsilosis CCM 8260. Briefly: Antifungal microdilution broth MIC. As to conditions: Lodderomyces parapsilosis, CCM8260, 48 h, read-out: MIC C. parapsilosis (standards).
For data set [6], the system named is C. krusei CCM 8271. Briefly: Antifungal microdilution broth MIC. As to conditions: Pichia kudriavzevii, CCM8271, 48 h, read-out: MIC C. krusei (standards).
For data set [7], the system named is Pseudomonas aeruginosa CCM 3955. The arrangement: method as in PMID 26084645. As to conditions: previously published positional isomer; cited from earlier work.
Data set [8] has as its system M. kansasii CNCTC My 235/80. Briefly: Antimycobacterial microdilution broth MIC (Alamar Blue). Type of data set: cell-based, Mycobacterium kansasii.
Data set [9] concerns Mycobacterium smegmatis DSM 43465. Kind of data set: Antimycobacterial microdilution broth panel MIC (resazurin). Type of data set: cell-based. As to conditions: for MIC: Mycolicibacterium smegmatis.
In data set [10] the test system is Mycobacterium aurum DSM 43999. Described as above. As to conditions: Mycolicibacterium aurum, DSM43999. Type of data set: cell-based.
Data set [11] concerns Mycobacterium tuberculosis H37Rv. Briefly: Antimycobacterial microdilution broth MIC (Alamar Blue). Type of data set: cell-based.
Data set [12] concerns M. avium ssp. avium CNCTC My 80/72. The data set is described as above. The data set is classed as cell-based, Mycobacterium avium.
A short description of data set [13]: Lipophilicity by reverse phase HPLC (log k). As to conditions: RP-HPLC C18, MeOH 70% / H2O 30%, 30 °C.
Protocol: The mobile phase consisted of MeOH (HPLC grade, 70%) and H2O (HPLC-Milli-Q Grade, 30%). The flow rate was 1.0 mL/min, samples were injected in a volume of 20 µL, and the column temperature was 30 °C. Detection and monitoring wavelength were 210 nm and 270 nm, respectively. Retention times (Rt) were measured in minutes. The dead time of the system (Dt) was determined as the retention time of the KI methanolic solution. Capacity factors k for individual compounds were calculated according to the formula k = (Rt – Dt)/Dt. Capacity factor k was converted to log scale and (log k) and used as a measure of lipophilicity.
Data set [14] is described as follows: Solubility in the cytotoxicity testing medium. As to conditions: cytotoxicity assay medium; highest tested concentration 50 µM.
Data set [15] has as its system HepG2 cell line. Kind of data set: In vitro cytotoxicity, CellTiter 96 Aqueous One.
A short description of data set [16]: In vitro cytotoxicity, CellTiter 96 Aqueous One. As to conditions: human.
Data set [17] has as its system Aspergillus fumigatus ATCC 204305. Briefly: Antifungal microdilution broth MIC. As to conditions: ATCC204305, 48 h, read-out: MIC Aspergillus fumigatus (standards).
The test system of data set [18] is Candida albicans CCM 8320. Kind of data set: Antifungal microdilution broth MIC. As to conditions: CCM8320, 48 h, read-out: MIC Candida albicans (standards).
For data set [19], the system named is Ataxia Telangiectasia and Rad3 Related (ATR) protein kinase. Also on record: method as in doi:10.1007/s00044-013-0665-6. As to conditions: cited from earlier work.
In data set [20] the test system is Staphylococcus aureus methicillin resistant CCM 4750. Briefly: Antibacterial microdilution broth MIC. As to conditions: CCM4750, 48 h, read-out: MIC Staphylococcus aureus methicillin resistant (standards).
Data set [21] has as its system Staphylococcus aureus CCM 4223. Briefly: Antibacterial microdilution broth MIC. As to conditions: CCM4223, 48 h, read-out: MIC Staphylococcus aureus (standards).
For data set [22], the system named is Serratia marcescens 62-2016. Kind of data set: Antibacterial microdilution broth MIC. As to conditions: Serratia marcescens, 622016, 48 h, read-out: MIC Serratia marcescens (standards).
The subject of data set [23] is Staphylococcus epidermidis 112-2016. Kind of data set: Antibacterial microdilution broth MIC. As to conditions: Staphylococcus epidermidis, 1122016, 48 h, read-out: MIC Staphylococcus epidermidis (standards).
Data set [24] relates to Escherichia coli CCM 3954. Kind of data set: Antibacterial microdilution broth MIC. As to conditions: CCM3954, 48 h, read-out: MIC Escherichia coli (standards).
For data set [25], the system named is Enterococcus faecalis CCM 4224. Briefly: Antibacterial microdilution broth MIC. As to conditions: CCM4224, 48 h, read-out: MIC Enterococcus faecalis (standards).
The subject of data set [26] is Klebsiella pneumoniae 64-2016. Kind of data set: Antibacterial microdilution broth MIC. As to conditions: Klebsiella pneumoniae, 642016, 48 h, read-out: MIC Klebsiella pneumonia (standards).
Data set [27] relates to Pseudomonas aeruginosa CCM 3955. Kind of data set: Antibacterial microdilution broth MIC. As to conditions: CCM3955, 48 h, read-out: MIC Pseudomonas aeruginosa (standards).
Setting [28] is: Mycobacterium tuberculosis, H37RV, pH 6.6, M. tuberculosis H37Rv, Middlebrook 7H9 pH 6.6.
[29] abbreviates: Mycobacterium tuberculosis, H37RV, M. tuberculosis H37Rv, value in parentheses.

With `C[C@@H]1[C@H](O)[C@@H](C)/C=C/C=C/C=C/C=C/C=C/C=C/C=C/[C@H](O[C@@H]2O[C@H](C)[C@@H](O)[C@H](N)[C@@H]2O)C[C@@H]2O[C@](O)(C[C@@H](O)C[C@@H](O)[C@H](O)CC[C@@H](O)C[C@@H](O)CC(=O)O[C@H]1C)C[C@H](O)[C@H]2C(=O)O` [amphotericin B], the MIC came to 2 µg/mL (≈ 2.16 µM) in [1]; 0.5 µg/mL (≈ 0.541 µM) in [2]; 1 µg/mL (≈ 1.08 µM) in data set [3]; 8 µg/mL (≈ 8.66 µM) in [4]; 0.5 µg/mL (≈ 0.541 µM) in data set [5]; 1 µg/mL (≈ 1.08 µM) in data set [6].

Take `Nc1cnc(C(=O)Nc2ccc(C(F)(F)F)cc2)cn1` [5-amino-N-(4-(trifluoromethyl)phenyl)pyrazine-2-carboxamide]: in [7], the “MIC P. aeruginosa” value is 250 µM (≈ 70.6 µg/mL).

Turning to `NNC(=O)c1ccncc1` [INH, isoniazid, reference compound], the “MIC M. kansasii” value in [8] was 3.13 to 12.5 µg/mL. In addition, the “MIC M. smegmatis” value in [9] lay within 7.81 to 15.62 µg/mL. Also, the MIC in [9] (DSM43465) was in the range of 7.81 to 15.6 µg/mL; in data set [10], 1.95 to 3.91 µg/mL (≈ 14.2 to 28.5 µM); in [11] (setting [28]), 0.1 to 0.2 µg/mL. For the same molecule, the “MIC M. avium” value in data set [12] was in the range of 6.25 to 12.5 µg/mL.

In data set [13], `COc1ccc(NC(=O)c2nccnc2N)c(OC)c1` [Compound 17, 3-Amino-N-(2,4-dimethoxyphenyl)pyrazine-2-carboxamide] gave a log k of 0.37. In addition, the MIC was > 500 µg/mL in [9] (DSM43465); > 1820 µM in [9] (DSM43465, value in parentheses); 45.6 µM in data set [11] (M. tuberculosis H37Rv, value in parentheses); 46 µM in [11] (setting [29]); 12.5 µg/mL in data set [11] (setting [28]). The “solubility in the testing medium” value in [14] was “decreased solubility”. Further, the “cytotoxicity against HepG2” value in data set [15] is “nontoxic”. In [16], the IC50 at 24 h is > 50 µM.

As for `C[C@@H](c1ncncc1F)[C@](O)(Cn1cncn1)c1ccc(F)cc1F` [voriconazole], the MIC in data set [17] was 1 µg/mL (≈ 2.86 µM); in data set [1] it was > 16 µg/mL; in data set [2], > 16 µg/mL; in data set [18], > 16 µg/mL; in data set [3], > 16 µg/mL; in data set [4], > 16 µg/mL. Besides, the MIC in data set [5] is 8 µg/mL (≈ 22.9 µM); in data set [6], 0.5 µg/mL (≈ 1.43 µM).

As for `Nc1nccnc1C(=O)Nc1ccccc1` [Compound 13, 3-Amino-N-phenylpyrazine-2-carboxamide], the log k in data set [13] stood at 0.189. Also, the “inhibitory effects on ATR protein kinase” value in data set [19] was “inhibitory effects”. Further, the MIC in data set [9] (DSM43465) was > 500 µg/mL; in data set [9] (DSM43465, value in parentheses), > 2330 µM; in [11] (setting [29]), > 467 µM; in [11] (setting [28]) it was > 100 µg/mL.

`O=C(O)c1cn(C2CC2)c2cc(N3CCNCC3)c(F)cc2c1=O` [ciprofloxacin]: the minimum inhibitory concentration (MIC) is 0.0625 to 0.125 µg/mL in data set [9] (DSM43465); 0.128 µg/mL (≈ 0.386 µM) in data set [20]; 0.00781 to 0.0156 µg/mL (≈ 0.0236 to 0.0472 µM) in data set [10]; 0.128 to 0.256 µg/mL (≈ 0.386 to 0.773 µM) in data set [21]; 0.256 µg/mL (≈ 0.773 µM) in data set [22]; > 1.02 µg/mL in data set [23]. Also, the MIC in data set [24] is 0.008 µg/mL (≈ 0.0241 µM); in data set [25], 0.512 µg/mL (≈ 1.55 µM); in data set [26], > 1.02 µg/mL; in [27] it was 0.128 µg/mL (≈ 0.386 µM).
